Laboratory results as given in patent publication US10071080B2, “MIF inhibitors for the acute or chronic treatment of pulmonary hypertension” (MIFCARE, priority 2014, dated 2018).

Experiments:
[1] = molecular target: T1, recombinant human MIF (Homo sapiens, UniProt P14174); assay: MIF tautomerase assay using 4-hydroxyphenylpyruvate (4-HPP); assay type: biochemical; conditions: for inhibition at 0.001 µM: compounds at 1 nM, substrate 4-HPP, compared to positive control with rhMIF alone
T1 construct: purchased RayBiotech
T1 sequence (P14174 2-115 limits assumed): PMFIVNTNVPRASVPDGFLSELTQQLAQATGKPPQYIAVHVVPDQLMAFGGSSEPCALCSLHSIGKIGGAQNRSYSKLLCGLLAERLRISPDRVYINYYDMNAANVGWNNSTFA
Experimental: Tautomerase activity was assessed using 4-hydroxyphenylpyruvate (4-HPP) as substrate. 4-HPP was dissolved in 50 mM ammonium acetate at pH 6.0, allowed to equilibrate to room temperature and stored at −20° C. 300 ng/mL of recombinant human MIF (rhMIF; RayBiotech, Le Perray en Yvelines, France) and tested compounds were pre-incubated at room temperature for 15 min. Tautomerase activity was assessed at room temperature, by adding 4-HHP to a 96-well plate containing 0.435 M boric acid at pH 6.6 and rhMIF with or without (positive control) tested compounds (1 nM), and by measuring the increase in absorbance at 320 nm over 10-360 s using the 2103 EnVision™ Multilabel Plate Readers (PerkinElmer, Villebon-sur-Yvette, France). Compounds were tested at 1 nM. The assay was replicated 3 to 6 times independently.

[2] = tested on: DU-145 cell line; assay: MTT assay, cell proliferation and survival, DU-145; assay type: cell-based; conditions: 24 h, effect significantly superior compared to ISO-1 (p<0.05); for cell survival: 0% FCS, at 100 μM and 50 μM
Experimental: (§1) P-ECs were isolated and cultured from lung specimens of patients with idiopathic pulmonary arterial hypertension (iPAH) as previously described (Tu et al., Am J Respir Cell Mol Biol. 2012). The isolated P-ECs were strongly positive for acetylated low-density lipoprotein coupled to Alexa 488 (Alexa488-Ac-LDL), von Willebrand factor (vWF), CD31, and for Ulex europaeus agglutinin-1 (UEA-1) and negative for alpha-smooth muscle actin (α-SMA). DU-145 cell lines and iPAH ECs were grown in MCDB131 medium (Fisher, Illkirch Cedex, France) supplemented with 10% fetal calf serum (FCS), penicillin-streptomycin solution, glutamine, HEPES and amphotericine.
(§2) To determine the impact of the compounds of the invention on the proliferation and the survival of DU-145 cell line and iPAH P-ECs, the methyl tetrazolium (MTT) assay was performed. To this aim, cells were plated in a 96-well plate and cultured in MCDB131 medium (Fisher, Illkirch Cedex, France) supplemented with 10% fetal calf serum (FCS) for 24 h. DU-145 and iPAH ECs monolayers were then washed and 50 or 100 μM of tested compounds were added with 0% (for cell survival assessment) or 10% (for cell proliferation assessment) of FCS for 24 h. Then, cells were incubated with 5 mg/mL of MTT for 6 h of incubation. At the end of the incubation time, medium was removed, dimethylsulfoxide (DMSO) was added in each well and absorbance was recorded at 590 nm using the microplate spectrophotometer system EnVision (PerkinElmer, Waltam, USA).

[3] = tested on: iPAH P-ECs (human pulmonary endothelial cells); assay: MTT assay, cell proliferation and survival, iPAH P-ECs; assay type: cell-based; conditions: iPAH EC, 24 h, effect significantly superior compared to ISO-1 (p<0.05); for cell survival: 0% FCS, at 100 μM and 50 μM
Experimental: as §1, §2

[4] = tested on: MCT-injected rats; assay: Rodent model of pulmonary hypertension (monocrotaline); assay type: in vivo; conditions: for mean pulmonary arterial pressure (mPAP): 2 weeks; for degree of established PH: started one week after MCT
Experimental: Animal studies were approved by the administrative panel on animal care at the Univ. Paris-Sud, Le Plessis-Robinson, France. Young male Wistar rats (100 g, Janvier Labs, France) were studied 3 weeks after a single subcutaneous injection of monocrotaline (60 mg/kg) (Sigma-Aldrich, Saint-Quentin Fallavier, France), or vehicle. One week after a single subcutaneous injection of monocrotaline (MCT), rats were randomly divided into several groups and treated for 2 weeks with • (example 3) daily intraperitoneal injections of ISO-1, compound 1 of the invention (M3), M41, or vehicle (vehicle A: 50% (v/v) DMSO (Dimethyl sulfoxide) in normal saline for i.v. administrations) at a dose of 10 mg·kg^−1·day^−1; or • (example 4) daily per os administration of compounds of the invention, or vehicle (vehicle B: 33% DMSO, 45% propylene glycol, 21% saline) at a dose of 30 mg·kg^−1·day^−1.
Animals were anesthetized with isoflurane. A polyvinyl catheter was introduced into the right jugular vein and pushed through the right ventricle into the pulmonary artery. Cardiac output in rat was measured using the thermodilution method. After measurement of hemodynamic parameters, the thorax was opened and the left lung immediately removed and frozen. The right lung was fixed in the distended state with formalin buffer. The right ventricular hypertrophy (RVH) index and the percentage of muscularized vessels were determined as previously described (Guignabert C 2009 J Faseb 23 (12): 4135-4147).

[5] = 30 mg/kg oral daily, compared to MCT-injected rats treated with vehicle B, p<0.05
[6] = oral daily 30 mg/kg/day for 2 weeks
[7] = 10 mg/kg daily intraperitoneal, compared to MCT-injected rats treated with vehicle A
[8] = daily intraperitoneal 10 mg/kg/day for 2 weeks, day 21

Structure (SMILES): Oc1cc(Cn2c(=S)oc3ccc(C(F)(F)F)cc32)ccc1F [Compound 5, 3-(4-fluoro-3-hydroxybenzyl)-5-(trifluoromethyl)benzo[d]oxazole-2(3H)-thione]
- inhibition at 0.001 µM [1]: 43%
- cell survival [2]: decrease significantly cell survival
- cell proliferation ([2]; 10% FCS, 50 or 100 μM): inhibit significantly cell proliferation
- cell survival [3]: decrease significantly cell survival
- cell proliferation ([3]; 10% FCS, 50 or 100 μM): inhibit significantly cell proliferation
- mean pulmonary arterial pressure (mPAP) [4, 5]: substantial reduction
- degree of established PH, compared with treatment by sildenafil ([4]; compound 5 at 30 mg/kg oral daily for 2 weeks, sildenafil at 100 mg/kg): substantially attenuates the degree of established PH
- degree of established PH [4, 6]: substantially attenuates the degree of established PH

Structure (SMILES): COC(=O)CC1CC(c2ccc(O)cc2)=NO1 (stereo not shown) [ISO-1, reference compound]
- inhibition at 0.001 µM [1]: 21%
- mean pulmonary arterial pressure (mPAP) [4, 7]: substantial reduction in values of mPAP

Structure (SMILES): Cc1ccc2oc(=S)n(Cc3ccccc3)c2c1 [Compound 3, 3-benzyl-5-methylbenzo[d]oxazole-2(3H)-thione]
- inhibition at 0.001 µM [1]: 35%

Structure (SMILES): COc1ccccc1Cn1c(=S)oc2ccc(C)cc21 [Compound 2, 3-(2-methoxybenzyl)-5-methylbenzo[d]oxazole-2(3H)-thione]
- inhibition at 0.001 µM [1]: 36%

Structure (SMILES): Cc1ccc2oc(=S)n(Cc3cccc(O)c3)c2c1 [Compound 1, 3-(3-hydroxybenzyl)-5-methylbenzo[d]oxazole-2(3H)-thione]
- inhibitory effect against the MIF tautomerase activity (in words) ([1]; compound 1 compared to benzoxazol-2-one analogue M41, compounds of the invention compared to ISO-1): good inhibitory effect
- inhibition at 0.001 µM [1]: 41%
- mean pulmonary arterial pressure (mPAP) [4, 7]: substantial reduction in values of mPAP
- degree of established PH [4, 8]: substantially attenuates the degree of established PH
- mPAP, compared to MCT-injected rats treated with ISO-1 ([4]; same dose, 10 mg/kg, p=0.0855): higher beneficial effects in mPAP

Structure (SMILES): Cc1ccc2oc(=O)n(Cc3cccc(O)c3)c2c1 [Compound M41, reference compound]
- inhibition at 0.001 µM [1]: 29%
- mortality rate ([4]; MCT-injected rats, 10 mg/kg/day intraperitoneal): 5/6
- degree of established PH [4, 8]: substantially attenuates the degree of established PH

Structure (SMILES): Cc1ccc2oc(=S)n(Cc3ccc(F)c(O)c3)c2c1 [Compound 4, 3-(4-fluoro-3-hydroxybenzyl)-5-methylbenzo[d]oxazole-2(3H)-thione]
- inhibition at 0.001 µM [1]: 39%
- cell survival [2]: decrease significantly cell survival
- cell survival [3]: decrease significantly cell survival
- mean pulmonary arterial pressure (mPAP) [4, 5]: substantial reduction
- degree of established PH [4, 6]: substantially attenuates the degree of established PH
